Assay results published in PubChem BioAssay AID2060489 (Molecular Pharmacology Branch, DTP, NCI, 2025).

System: 922993-354-T-J3-PDC complex spheroids, viability
Assay: Anticancer human tumor 922993-354-T-J3-PDC patient-derived endometrial carcinoma cell line growth inhibition [GQUAD]
Conditions: for IC50: curve of first compound; for viability, T/C: stronger effect = lower value
From the text: DNA G-quadruplex Stabilizer Agents in Combinations in Complex Spheroids
A high-throughput screen of multi-cell type tumor spheroids was designed to identify active combinations of DNA G-quadruplex stabilizer agents and targeted small molecules. Complex spheroids include a stromal component modeled by human endothelial cells (HUVEC) and fibroblasts modeled by human mesenchymal stem cells (MSCs). The concentration ranges selected for each drug and investigational agent were based upon clinically achievable concentrations if the clinical Cmax of the agent was known.
Compounds. The drugs and investigational agents: pidnarulex (CX-5461; NSC782164), APTO-253 (NSC789042), BRACO-19 (NSC847499), peposertib (NSC802822), ceralasertib (NSC780249), elimusertib (NSC800525), camonsertib (NSC841442), AZD-1390 (NSC803789), olaparib (NSC753686), talazoparib (NSC767125), ART-558 (NSC835418), sotorasib (NSC818433), MRTX-1133 (NSC836407), SN-38 (NSC673596), topotecan (NSC609699), etoposide (NSC141540), doxorubicin (NSC123127), gemcitabine (NSC613327), 5-fluorouracil (NSC19893), paclitaxel (NSC125973), vemurafenib (NSC761431), panobinostat (NSC761190), R-306465 (JNJ-16241199; NSC773264), adavosertib (NSC754352), TP-3654 (NSC805149), carboplatin (NSC241240), KSQ-4279 (NSC840948), and staurosporine (NSC755774) were obtained from the National Cancer Institute (NCI) Developmental Therapeutics Program Chemical Repository (34). The FDA-approved anticancer drug set is available from the NCI Developmental Therapeutics Program. […] The stock solutions were prepared in dimethyl sulfoxide (DMSO, Sigma-Aldrich, St. Louis, MO, cat. D2650) at 800-fold the tested concentration and stored at -70 degrees C prior to their use. All drugs and investigational agents were tested over a range starting from a high concentration at or near the clinical Cmax and decreasing in half-log increments. If the clinical Cmax for an agent had not been determined, the highest concentration tested was 10 microM.
2.3 Cell Culture. All cells were maintained in an incubator at 37 degrees C and 5% CO2 with 95% humidity. The PDC lines were cultured according to standard operating procedures established by the NCI PDMR. All PDCs were thawed and cultured in Matrigel-coated flasks prepared with a working solution of 1X Ham's F-12 nutrient mix, without supplementation (Invitrogen, cat. 11765054), 100 U/mL penicillin-streptomycin (Invitrogen, cat. 15140122), and 2.5% Matrigel (Corning Inc., cat. 354248) for the first three passages. The 857933-349-R-J2-PDC line was cultured in 6C/Colon 1B media, which includes advanced DMEM/F-12 (Thermo Fisher Scientific, cat. 12634028), 10 mM HEPES (Thermo Fisher Scientific, cat. 15630080), 1X GlutaMAX supplement (Thermo Fisher Scientific, cat. 35050061), 0.1 mg/mL primocin (InvivoGen, cat. ant-pm-2), 10% defined fetal bovine serum, heat inactivated (HyClone Laboratories Inc., cat. SH30070.03HI), 50% L-WRN conditioned media (ATCC, cat. CRL-3276), 1.25 mM N-Acetyl-L-cysteine (Sigma-Aldrich, cat. A9165), 10 mM nicotinamide (Sigma-Aldrich, cat. N0636), 1X B-27 supplement (Thermo Fisher Scientific, cat. 17504044), 1X N-2 supplement (Thermo Fisher Scientific, cat. 17502048), 10 microM Y-27632 dihydrochloride (Tocris Bioscience, cat. 1254), and 50 ng/mL human EGF recombinant protein (Thermo Fisher Scientific, cat. PHG0311). The 485176-168-R4-J1-PDC line was cultured in Panc media, which includes all 6C/Colon 1B media components plus 100 ng/mL human FGF-10 (Thermo Fisher Scientific, cat. 100-26), 500 nM SB-431542 (Selleckchem, cat. S1067), and gastrin (Tocris, cat. 3006).
[…]

[1] = second compound 0.0316 µM, first compound 0.0316 µM
[2] = second compound 0.0316 µM, first compound 0.316 µM
[3] = second compound 0.1 µM, first compound 0.0316 µM
[4] = second compound 0.1 µM, first compound 0.316 µM
[5] = second compound 0.316 µM, first compound 0.0316 µM
[6] = second compound 0.316 µM, first compound 0.316 µM
[7] = second compound 1 µM, first compound 0.0316 µM
[8] = second compound 1 µM, first compound 0.316 µM
[9] = second compound 3.16 µM, first compound 0.0316 µM
[10] = second compound 3.16 µM, first compound 0.316 µM
[11] = second compound 10 µM, first compound 0.0316 µM
[12] = second compound 10 µM, first compound 0.316 µM
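Note: spheroids exposed to compounds for seven days.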
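Throughout, for viability, T/C: 100% = DMSO vehicle control viability.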

CC1COCCN1c1cc(C2(O)CC3CCC(C2)O3)c2cnn(-c3ccn[nH]3)c2n1 (centres undefined) + Cc1cnc(CNC(=O)c2c(=O)c3ccc(N4CCCN(C)CC4)nc3n3c2sc2ccccc23)cn1
IC50 (second compound 0.0316 µM): 214 nM
IC50 (second compound 0.1 µM): 86.1 nM
IC50 (second compound 0.316 µM): < 31.6 nM
IC50 (second compound 1 µM): < 31.6 nM
IC50 (second compound 3.16 µM): < 31.6 nM
IC50 (second compound 10 µM): < 31.6 nM
viability, T/C [1]: 79.9%
viability, T/C (second compound 0.0316 µM, first compound 0.1 µM): 64.3%
viability, T/C [2]: 40.1%
viability, T/C (second compound 0.0316 µM, first compound 1 µM): 32.2%
viability, T/C (second compound 0.0316 µM, first compound 3.16 µM): 28.6%
viability, T/C (second compound 0.0316 µM, first compound 10 µM): 18.2%
viability, T/C [3]: 68.8%
viability, T/C (second compound 0.1 µM, first compound 0.1 µM): 43.1%
viability, T/C [4]: 40.9%
viability, T/C (second compound 0.1 µM, first compound 1 µM): 21%
viability, T/C (second compound 0.1 µM, first compound 3.16 µM): 26.6%
viability, T/C (second compound 0.1 µM, first compound 10 µM): 16.5%
viability, T/C [5]: 47.4%
viability, T/C (second compound 0.316 µM, first compound 0.1 µM): 46.2%
viability, T/C [6]: 37.1%
viability, T/C (second compound 0.316 µM, first compound 1 µM): 23.1%
viability, T/C (second compound 0.316 µM, first compound 3.16 µM): 22.1%
viability, T/C (second compound 0.316 µM, first compound 10 µM): 12.5%
viability, T/C [7]: 46.2%
viability, T/C (second compound 1 µM, first compound 0.1 µM): 43.1%
viability, T/C [8]: 50.8%
viability, T/C (second compound 1 µM, first compound 1 µM): 34.2%
viability, T/C (second compound 1 µM, first compound 3.16 µM): 23.3%
viability, T/C (second compound 1 µM, first compound 10 µM): 4.13%
viability, T/C [9]: 44.8%
viability, T/C (second compound 3.16 µM, first compound 0.1 µM): 44.2%
viability, T/C [10]: 45.2%
viability, T/C (second compound 3.16 µM, first compound 1 µM): 29.4%
viability, T/C (second compound 3.16 µM, first compound 3.16 µM): 3.29%
viability, T/C (second compound 3.16 µM, first compound 10 µM): 0.13%
viability, T/C [11]: 45.5%
viability, T/C (second compound 10 µM, first compound 0.1 µM): 37.9%
viability, T/C [12]: 31.4%
viability, T/C (second compound 10 µM, first compound 1 µM): 14.6%
viability, T/C (second compound 10 µM, first compound 3.16 µM): 0.21%
viability, T/C (second compound 10 µM, first compound 10 µM): 0.2%

CC[C@@]1(O)C(=O)OCc2c1cc1n(c2=O)Cc2cc3c(CN(C)C)c(O)ccc3nc2-1 + Cc1cnc(CNC(=O)c2c(=O)c3ccc(N4CCCN(C)CC4)nc3n3c2sc2ccccc23)cn1
IC50 (second compound 0.0316 µM): > 316 nM
IC50 (second compound 0.1 µM): 125 nM
IC50 (second compound 0.316 µM): 3.91 nM
IC50 (second compound 1 µM): 81.8 nM
IC50 (second compound 3.16 µM): 53 nM
IC50 (second compound 10 µM): < 0.999 nM
viability, T/C (second compound 0.0316 µM, first compound 0.000999 µM): 94.7%
viability, T/C (second compound 0.0316 µM, first compound 0.00316 µM): 86.6%
viability, T/C (second compound 0.0316 µM, first compound 0.00999 µM): 84%
viability, T/C [1]: 86.9%
viability, T/C (second compound 0.0316 µM, first compound 0.0999 µM): 83.2%
viability, T/C [2]: 54.6%
viability, T/C (second compound 0.1 µM, first compound 0.000999 µM): 60.6%
viability, T/C (second compound 0.1 µM, first compound 0.00316 µM): 74.2%
viability, T/C (second compound 0.1 µM, first compound 0.00999 µM): 55.1%
viability, T/C [3]: 61%
viability, T/C (second compound 0.1 µM, first compound 0.0999 µM): 50.4%
viability, T/C [4]: 42.7%
viability, T/C (second compound 0.316 µM, first compound 0.000999 µM): 58.6%
viability, T/C (second compound 0.316 µM, first compound 0.00316 µM): 53.5%
viability, T/C (second compound 0.316 µM, first compound 0.00999 µM): 46.7%
viability, T/C [5]: 37.5%
viability, T/C (second compound 0.316 µM, first compound 0.0999 µM): 41.1%
viability, T/C [6]: 40.3%
viability, T/C (second compound 1 µM, first compound 0.000999 µM): 42.2%
viability, T/C (second compound 1 µM, first compound 0.00316 µM): 58.5%
viability, T/C (second compound 1 µM, first compound 0.00999 µM): 39.6%
viability, T/C [7]: 62.3%
viability, T/C (second compound 1 µM, first compound 0.0999 µM): 49.1%
viability, T/C [8]: 36.2%
viability, T/C (second compound 3.16 µM, first compound 0.000999 µM): 52.1%
viability, T/C (second compound 3.16 µM, first compound 0.00316 µM): 54.9%
viability, T/C (second compound 3.16 µM, first compound 0.00999 µM): 63.4%
viability, T/C [9]: 42.5%
viability, T/C (second compound 3.16 µM, first compound 0.0999 µM): 49.2%
viability, T/C [10]: 45.3%
viability, T/C (second compound 10 µM, first compound 0.000999 µM): 45.5%
viability, T/C (second compound 10 µM, first compound 0.00316 µM): 36.3%
viability, T/C (second compound 10 µM, first compound 0.00999 µM): 43.3%
viability, T/C [11]: 44.1%
viability, T/C (second compound 10 µM, first compound 0.0999 µM): 46.2%
viability, T/C [12]: 47.5%
